Measured values taken from patent publication US20070166246A1, “Composition for oral cavity” (TOYO SHINYAKU CO., LTD., priority 2004, published 2007).

Test system: blood flow in the lower gingiva
Assay: Blood flow improvement in the gingiva using tablets (Example 3)
Format: in vivo, human
Conditions: gradually dissolved in the mouth (two tablets, about 2 mg extract; vitamin E 100 mg alone), four volunteers, mean ± standard deviation
Procedure: Next, using the tablets, an experiment was conducted with respect to the effect of improving blood flow in a tissue (the gingiva) of the mouth through the cooperation of four of the five volunteers in Example 1. More specifically, first, the volunteers put two tablets in their mouths, and ingested the tablets into the body while gradually dissolving the tablets in their mouths. Next, at predetermined times (five minutes and 15 minutes) after completion of ingestion of the tablets, the blood flow in the lower gingiva was measured with a blood flow meter. It should be noted that the blood flow meter and others that were used herein are the same as those in Example 1. Moreover, as an example of a substance that improves blood flow, vitamin E (100 mg) alone was ingested while being gradually dissolved in the mouth, and the blood flow was also measured. Furthermore, the tablets containing the pine bark extract (two tablets) were ingested by being swallowed at one gulp with 10 mL of distilled water, instead of being gradually dissolved in the mouth, and the blood flow was also measured.
The results of the blood flow measurement are shown as relative values, taking the measurement results of the blood flow measurement performed before putting the tablets in the mouth as 100. […]

vitamin E
blood flow in the lower gingiva, relative value (before putting the tablets in the mouth = 100) (5 min after ingestion): 116.99 ± 14.39
blood flow in the lower gingiva, relative value (before putting the tablets in the mouth = 100) (15 min after ingestion): 105.63 ± 16.16
